The values that follow come from ChEMBL document CHEMBL4619778, “Oligopeptides as Neuropeptide Y Y4 Receptor Ligands: Identification of a High-Affinity Tetrapeptide Agonist and a Hexapeptide Antagonist” (J Med Chem, 2020).

In assay [1] the target is T1, Neuropeptide Y receptor type 4 (Homo sapiens, UniProt P50391). Nature of the assay: Displacement of [3H]UR-KK200 from human Y4 receptor expressed in CHO cells co-expressing Gqi5-mtAEQ measured after 90 mins by scintillation counting analysis. Format: cell-based.
Assay [2] has as its target T1, Neuropeptide Y receptor type 4. Description: Agonist activity at human Y4R expressed in HEK293T cells co-expressing ARRB1 assessed as induction of beta-arrestin1 recruitment measured for 40 mins by D-luciferin based luminescence assay. Format: cell-based, HEK-293T. A general note: Recruitment of arrestin is a read-out of receptor activation apart from second messengers.

Assay [3] shares this target. Description: Agonist activity at human Y4R expressed in HEK293T cells co-expressing ARRB2 assessed as induction of beta-arrestin2 recruitment measured for 40 mins by D-luciferin based luminescence assay. Format: cell-based, HEK-293T.
Assay [4] deals with T2, Neuropeptide Y receptor type 1 (Homo sapiens, UniProt P25929).
T2 sequence (P25929 whole entry): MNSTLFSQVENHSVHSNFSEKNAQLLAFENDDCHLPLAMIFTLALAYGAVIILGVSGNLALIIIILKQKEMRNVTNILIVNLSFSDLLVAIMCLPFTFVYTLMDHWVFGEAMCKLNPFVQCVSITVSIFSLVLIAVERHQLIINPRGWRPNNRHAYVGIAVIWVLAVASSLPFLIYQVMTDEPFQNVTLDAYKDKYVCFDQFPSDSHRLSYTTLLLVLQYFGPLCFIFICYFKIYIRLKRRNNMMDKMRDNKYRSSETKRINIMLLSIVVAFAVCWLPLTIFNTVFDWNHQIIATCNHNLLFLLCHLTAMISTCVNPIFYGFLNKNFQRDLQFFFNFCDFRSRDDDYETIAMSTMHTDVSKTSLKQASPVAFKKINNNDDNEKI
Description: Displacement of [3H]UR-MK299 from Y1 receptor in human SK-N-MC cells. Format: cell-based.

Assay [5] addresses T3, Neuropeptide Y receptor type 2 (Homo sapiens, UniProt P49146).
T3 sequence (P49146 whole entry): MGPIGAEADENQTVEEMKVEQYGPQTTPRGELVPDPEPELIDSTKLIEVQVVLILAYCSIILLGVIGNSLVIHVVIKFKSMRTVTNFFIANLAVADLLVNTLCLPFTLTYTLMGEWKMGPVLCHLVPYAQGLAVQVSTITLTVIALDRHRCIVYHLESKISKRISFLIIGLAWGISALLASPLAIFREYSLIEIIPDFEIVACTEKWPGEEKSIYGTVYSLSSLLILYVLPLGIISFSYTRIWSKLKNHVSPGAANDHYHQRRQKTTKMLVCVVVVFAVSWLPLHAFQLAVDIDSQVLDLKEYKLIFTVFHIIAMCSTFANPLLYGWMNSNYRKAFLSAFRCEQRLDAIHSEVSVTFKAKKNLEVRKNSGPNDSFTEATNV
Description: Displacement of [3H]propionyl-pNPY from human Y2 receptor expressed in CHO cells measured after 2 hrs by microbeta liquid scintillation counting analysis. Format: cell-based. Background: In a radioligand displacement assay an active substance lowers the binding of a labelled ligand.

Assay [6] concerns the target T4, Neuropeptide Y receptor type 5 (Homo sapiens, UniProt Q15761).
T4 sequence (Q15761 whole entry): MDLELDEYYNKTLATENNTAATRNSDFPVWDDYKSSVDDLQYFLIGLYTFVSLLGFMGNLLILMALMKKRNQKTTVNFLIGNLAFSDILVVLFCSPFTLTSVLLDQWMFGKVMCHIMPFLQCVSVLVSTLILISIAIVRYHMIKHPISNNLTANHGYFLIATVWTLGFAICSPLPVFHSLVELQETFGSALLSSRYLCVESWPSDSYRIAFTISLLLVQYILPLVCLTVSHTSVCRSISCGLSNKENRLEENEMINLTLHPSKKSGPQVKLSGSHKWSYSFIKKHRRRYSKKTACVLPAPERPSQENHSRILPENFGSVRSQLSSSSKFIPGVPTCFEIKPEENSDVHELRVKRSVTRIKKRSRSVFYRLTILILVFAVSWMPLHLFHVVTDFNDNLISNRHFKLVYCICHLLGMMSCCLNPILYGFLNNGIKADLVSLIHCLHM
Nature of the assay: Displacement of [3H]propionyl-pNPY from human Y5 receptor expressed in human HEC1B cells. Format: cell-based.

For assay [7], the species on record is Homo sapiens. Nature of the assay: Selectivity ratio of Ki for displacement of [3H]UR-MK299 from Y1 receptor in human SK-N-MC cells to Ki for displacement of [3H]UR-KK200 from human Y4 receptor expressed in CHO cells co-expressing Gqi5-mtAEQ. In kind it is cell-based.
For assay [8], the species on record is Homo sapiens. Nature of the assay: Selectivity ratio of Ki for displacement of [3H]propionyl-pNPY from human Y2 receptor expressed in CHO cells to Ki for displacement of [3H]UR-KK200 from human Y4 receptor expressed in CHO cells co-expressing Gqi5-mtAEQ. In kind it is cell-based.
The species entered for assay [9] is Homo sapiens. Nature of the assay: Selectivity ratio of Ki for displacement of [3H]propionyl-pNPY from human Y5 receptor expressed in human HEC1B cells to Ki for displacement of [3H]UR-KK200 from human Y4 receptor expressed in CHO cells co-expressing Gqi5-mtAEQ. Format: cell-based.
For assay [10], the target named is T1, Neuropeptide Y receptor type 4. Description: Agonist activity at human Y4 receptor expressed in CHO cells co-expressing Gqi5-mtAEQ assessed as intracellular calcium mobilization measured for 43 secs in presence of coelenterazine by aequorin-reporter gene based luminescence assay. Format: functional, cell-based. For orientation: Calcium flux is commonly read through the fluorescence of an indicator in the cells.

T1 sequence (P50391 whole entry): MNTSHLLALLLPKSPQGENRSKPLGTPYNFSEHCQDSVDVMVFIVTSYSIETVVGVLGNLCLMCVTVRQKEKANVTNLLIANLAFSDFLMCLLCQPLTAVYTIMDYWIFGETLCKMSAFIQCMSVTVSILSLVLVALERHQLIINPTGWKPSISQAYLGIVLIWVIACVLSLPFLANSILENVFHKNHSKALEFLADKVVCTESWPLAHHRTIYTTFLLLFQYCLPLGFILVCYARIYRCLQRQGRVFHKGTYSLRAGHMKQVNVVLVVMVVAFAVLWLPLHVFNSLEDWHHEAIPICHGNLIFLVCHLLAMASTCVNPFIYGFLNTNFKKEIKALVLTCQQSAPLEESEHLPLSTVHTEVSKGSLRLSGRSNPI

Consider `CC(C)C[C@@H](NC(=O)[C@@H](N)CCCNC(=N)N)C(=O)N[C@@H](CCCNC(=N)N)C(=O)N[C@@H](Cc1ccc(O)cc1)C(N)=O`, for which, in assay [1] (read-out: Ki), the Ki was determined as 93 nM. Also, the EC50 was greater than 30000 nM in assay [2] (read-out: EC50), greater than 31600 nM in assay [2] (read-out: pEC50 (converted)), greater than 30000 nM in [3] (read-out: EC50) and greater than 31600 nM in assay [3] (read-out: pEC50 (converted)).

In the case of Ac-RGYRLRW-NH2, the Ki in assay [1] (read-out: Ki) is 38 nM; in [1] (read-out: pKi (converted)), 30.9 nM; in assay [4] (read-out: pKi (converted)), greater than 1000 nM; in [4] (sk-n-mc, read-out: Ki) it was greater than 1000 nM; in assay [5] (cho, read-out: Ki), greater than 1000 nM; in [5] (read-out: pKi (converted)), greater than 1000 nM. The Ki in assay [6] (read-out: Ki) and in assay [6] (read-out: pKi (converted)) was greater than 1000 nM each time. Also, the Ratio Ki in the assay filed under Homo sapiens [7] was greater than 26; in the assay filed under Homo sapiens [8], 26; in the assay filed under Homo sapiens [9] it was greater than 26. For the same compound, the EC50 amounted to 520 nM in assay [2] (read-out: EC50), 360 nM in assay [3] (read-out: EC50) and 380 nM in [10] (read-out: EC50).

H-RYRARY-NH2: the Ki in assay [1] (read-out: Ki) is 240 nM; in [1] (read-out: pKi (converted)), 229 nM. Besides, the EC50 in assay [2] (read-out: EC50) is greater than 30000 nM; in [2] (read-out: pEC50 (converted)), greater than 31600 nM; in assay [3] (read-out: EC50), greater than 30000 nM; in assay [3] (read-out: pEC50 (converted)), greater than 31600 nM; in assay [10] (read-out: EC50), greater than 30000 nM; in assay [10] (read-out: pEC50 (converted)), greater than 31600 nM.

Regarding `CC(C)C[C@H](NC(=O)[C@H](CCCNC(=N)N)NC(=O)[C@H](Cc1ccc(O)cc1)NC(=O)[C@@H](N)CCCNC(=N)N)C(=O)N[C@@H](CCCNC(N)=O)C(=O)N[C@@H](Cc1ccc(O)cc1)C(N)=O`, the Ki in assay [1] (read-out: Ki) is 63 nM; in assay [1] (read-out: pKi (converted)), 56.2 nM; in assay [4] (read-out: Ki) it was greater than 3000 nM; in assay [4] (read-out: pKi (converted)), greater than 3160 nM. Besides, the Ratio Ki in the assay filed under Homo sapiens [7] was greater than 48. Further, the EC50 was found to be 1070 nM in assay [2] (read-out: EC50) and 930 nM in assay [3] (read-out: EC50).

As to `CC(C)C[C@H](NC(=O)[C@@H](N)CCCNC(=N)N)C(=O)N[C@H](CCCNC(=N)N)C(=O)N[C@@H](Cc1ccc(O)cc1)C(N)=O`, the Ki in [1] (read-out: Ki) was 1300 nM. Further, the EC50 in assay [2] (read-out: EC50) is greater than 30000 nM; in assay [2] (read-out: pEC50 (converted)) it was greater than 31600 nM; in [3] (read-out: EC50) it was greater than 30000 nM; in assay [3] (read-out: pEC50 (converted)) it was greater than 31600 nM.

With Ac-RGRLRY-NH2, the Ki in assay [1] (read-out: Ki) was 7.9 nM; in [1] (read-out: pKi (converted)) it was 7.59 nM; in assay [4] (read-out: Ki), greater than 3000 nM; in assay [4] (read-out: pKi (converted)) it was greater than 3160 nM; in assay [5] (cho, read-out: Ki) it was greater than 1000 nM; in assay [5] (read-out: pKi (converted)) it was greater than 1000 nM. For the same compound, the Ki in assay [6] (read-out: Ki) was greater than 3000 nM; in [6] (read-out: pKi (converted)), greater than 3160 nM. In addition, the Ratio Ki in the assay listed under Homo sapiens [7] is greater than 380; in the assay listed under Homo sapiens [8], greater than 130; in the assay filed under Homo sapiens [9], greater than 380. Also, the EC50 in assay [2] (read-out: EC50) worked out at 180 nM; in assay [3] (read-out: EC50) it was 250 nM; in [10] (read-out: EC50), 1200 nM.

`CC(C)C[C@H](NC(=O)[C@H](N)CCCNC(=N)N)C(=O)N[C@@H](CCCNC(=N)N)C(=O)N[C@@H](Cc1ccc(O)cc1)C(N)=O`: the Ki in [1] (read-out: Ki) amounted to 7.4 nM. The EC50 was 2400 nM in assay [2] (read-out: EC50), 4800 nM in [3] (read-out: EC50) and 4680 nM in assay [3] (read-out: pEC50 (converted)).
